Experiment [1] relates to L. monocytogenes CBC1. Nature of the experiment: Deferred antagonism assay. In kind it is cell-based, Listeria monocytogenes. Details: key: + = Enhanced bioactivity relative to control; − = Bioactivity equal to or less than control; NA = no activity evident. Conditions: L. mono CBC1; XX and XXX hinge mutant producers. An outline of the steps: (§1)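 L. lactis NZ9800 strains expressing nisin A hinge variants were replicated or spotted on GM17 agar, grown overnight, then overlaid with 0.75% w/v agar seeded with indicator. Zone size is the clearing diameter minus 5 mm colony growth.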

Experiment [2] has as its system L. monocytogenes CBC2. The experiment in a line: Deferred antagonism assay. It is filed as cell-based, Listeria monocytogenes. Details: key: + = Enhanced bioactivity relative to control; − = Bioactivity equal to or less than control; NA = no activity evident. Conditions: L. mono CBC2; XX and XXX hinge mutant producers. An outline of the steps:
as §1

Experiment [3] concerns L. monocytogenes CBC3. Nature of the experiment: Deferred antagonism assay. It is filed as cell-based, Listeria monocytogenes. Details: key: + = Enhanced bioactivity relative to control; − = Bioactivity equal to or less than control; NA = no activity evident. Conditions: L. mono CBC3; XX and XXX hinge mutant producers. The method in brief: as §1
For experiment [4], the system named is L. lactis CBC7. The experiment in a line: Deferred antagonism assay. It is filed as cell-based. Details: key: + = Enhanced bioactivity relative to control; − = Bioactivity equal to or less than control; NA = no activity evident. Conditions: XX and XXX hinge mutant producers. An outline of the steps:
as §1

For experiment [5], the system named is L. lactis CBC8. Nature of the experiment: Deferred antagonism assay. It is filed as cell-based. Details: key: + = Enhanced bioactivity relative to control; − = Bioactivity equal to or less than control; NA = no activity evident. Conditions: XX and XXX hinge mutant producers. An outline of the steps:
as §1

For experiment [6], the system named is S. aureus CBC4. Nature of the experiment: Deferred antagonism assay. It is filed as cell-based. Details: key: + = Enhanced bioactivity relative to control; − = Bioactivity equal to or less than control; NA = no activity evident. Conditions: XX and XXX hinge mutant producers. The method in brief:
as §1

The subject of experiment [7] is L. plantarum CBC6. Nature of the experiment: Deferred antagonism assay. It is filed as cell-based, Lactobacillus plantarum. Details: key: + = Enhanced bioactivity relative to control; − = Bioactivity equal to or less than control; NA = no activity evident. Conditions: XX and XXX hinge mutant producers. The method in brief:
as §1

The test system of experiment [8] is indicator strains. The experiment in a line: Deferred antagonism assays, various indicator strains (summary). Conditions: for Target strain against which the hinge mutant was selected for enhanced bioactivity: XX and XXX banks, L. lactis HP*: enhanced or equal; for Target strain against which the hinge mutant was selected for enhanced bioactivity / Strain(s) against which the derivative (producing strain) displays enhanced bioactivity: relative to nisin A-producing control; for Strain(s) against which the derivative (producing strain) displays enhanced bioactivity: value = strains listed; for number of targets with enhanced activity: of the 8 additional targets tested. It is filed as cell-based. The method in brief:
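Producer strains were replicated on GM17 or GM17 x-gal agar, grown overnight, then overlaid with GM17, BHI, TS or MH soft agar (0.75% w/v) seeded with the indicator strain. Zone size was taken as the clearing diameter minus the diameter of bacterial growth (5 mm).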

Entries after “also recorded” stand apart in the source; their conditions may differ. Ends that are not written are not given here.

Consider “NisinA PNR (ITSISLCTPGCKTGALMGCPNRTATCHCSIHVSK; not fully specified (bridges); also: lantibiotic nisin-A: lanthionine rings and dehydrated residues, places not given here; UniProt P13068 24-57, looked up, variant N20P M21N K22R) [nisin A hinge variant PNR (i.e. N20P, M21N, K22R)]”, for which the “bioactivity relative to a nisin A-producing control” value in experiment [1], in experiment [2], in experiment [3], in experiment [4], in experiment [5] and in experiment [6] was “−” in each case. The “bioactivity relative to a nisin A-producing control” value in experiment [7] is “−”. Also, the “Target strain against which the hinge mutant was selected for enhanced bioactivity” value in experiment [8] is listed as “Staph. aureus RF122”. The “Strain(s) against which the derivative (producing strain) displays enhanced bioactivity” value (from here on “Strain(s) against which the derivative”) in experiment [8] was “S. aureus RF122”.

Turning to NisinA PSL, the “bioactivity relative to a nisin A-producing control” value in experiment [1], in experiment [2], in experiment [3], in experiment [4], in experiment [5] and in experiment [6] was “−” each time. For the same substance, the “bioactivity relative to a nisin A-producing control” value in experiment [7] is listed as “−”. Further, the “Target strain against which the hinge mutant was selected for enhanced bioactivity” value in experiment [8] was “C. sporogenes UCC1/Staph. aureus RF122”. In addition, in experiment [8], the “Strain(s) against which the derivative” value is “C. sporogenes UCC1 and S. aureus RF122”.

As for NisinA PTA, the “bioactivity relative to a nisin A-producing control” value in experiment [1], in experiment [2], in experiment [3], in experiment [4], in experiment [5] and in experiment [6] was “−” throughout. In addition, in experiment [7], the “bioactivity relative to a nisin A-producing control” value is listed as “−”. Moreover, the “Target strain against which the hinge mutant was selected for enhanced bioactivity” value in experiment [8] was “C. sporogenes UCC1”. For the same substance, the “Strain(s) against which the derivative” value in experiment [8] is given as “C. sporogenes UCC1”.

Turning to “NisinA PTL (ITSISLCTPGCKTGALMGCPTLTATCHCSIHVSK; thioether (positions not given here); not fully specified (residues 2, 5, 33, bridges); also: lantibiotic nisin A, thioether rings and dehydro residues not given here; UniProt P13068 24-57, looked up, variant N20P M21T K22L) [nisin A hinge variant PTL (i.e. N20P, M21T, K22L)]”, the “bioactivity relative to a nisin A-producing control” value in experiment [1] was “−”; in experiment [2], “−”; in experiment [3] it was “+”; in experiment [4], “+”; in experiment [5], “−”; in experiment [6], “+”. In addition, the “bioactivity relative to a nisin A-producing control” value in experiment [7] was “−”. Moreover, the “Target strain against which the hinge mutant was selected for enhanced bioactivity” value in experiment [8] is on record as “C. sporogenes UCC1”. Further, the “number of targets with enhanced activity” value in experiment [8] came to 3. Besides, the “Strain(s) against which the derivative” value in experiment [8] is “C. sporogenes UCC1, L. monocytogenes CBC3 and CBC 4 , and L. lactis CBC7; also recorded: C. sporogenes UCC1, L mono CBC3, 4, L. lactis CBC7”.

As to “NisinA QLT (ITSISLCTPGCKTGALMGCQLTTATCHCSIHVSK; not fully specified (bridges); also: lantibiotic nisin-A: lanthionine rings and dehydrated residues, places not given here; UniProt P13068 24-57, looked up, variant N20Q M21L K22T) [nisin A hinge variant QLT (i.e. N20Q, M21L, K22T)]”, the “bioactivity relative to a nisin A-producing control” value in experiment [1], in experiment [2], in experiment [3], in experiment [4], in experiment [5] and in experiment [6] was “−” in each case. In experiment [7], the “bioactivity relative to a nisin A-producing control” value was “−”. In addition, the “Target strain against which the hinge mutant was selected for enhanced bioactivity” value in experiment [8] was “Strep. agalactiae ATCC 13813”. Further, in experiment [8], the “Strain(s) against which the derivative” value is reported as “S. agalactiae ATCC13813”.

For the substance “NisinA SVA (ITSISLCTPGCKTGALMGCSVATATCHCSIHVSK; not fully specified (bridges); also: lantibiotic nisin-A: lanthionine rings and dehydrated residues, places not given here; UniProt P13068 24-57, looked up, variant N20S M21V K22A) [nisin A hinge variant SVA (i.e. N20S, M21V, K22A)]”, the “bioactivity relative to a nisin A-producing control” value was “−” in experiment [1]; “+” in experiment [2]; “+” in experiment [3]; “+” in experiment [4]; “+” in experiment [5]; “+” in experiment [6]. In experiment [7], the “bioactivity relative to a nisin A-producing control” value is “−”. The “Target strain against which the hinge mutant was selected for enhanced bioactivity” value in experiment [8] is listed as “C. sporogenes UCC1”. Besides, in experiment [8], the “number of targets with enhanced activity” value is given as 5. For the same substance, in experiment [8], the “Strain(s) against which the derivative” value was “C. sporogenes UCC1, L. monocytogenes CBC2 , CBC3, S. aureus CBC4 and L. lactis CBC7 , CBC8; also recorded: C. sporogenes UCC1, L. mono CBC2, CBC3, S. aureus”.

The values are drawn from patent US8987193B2, “Nisin derivatives and the use thereof” (University College Cork—National University of Ireland, Cork, priority 2008, dated 2015).
